Holding throughout (assay): combination Emax (second highest fraction inhibited in the dose matrix, 72 h); higher = more inhibition; extreme values may be limits of the assay
The subject of assay [1] is YAPC (Pancreatic Carcinoma). Put shortly: (§1)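 After 24 hours at 37°C and 5% CO2 in 1536-well plates, cells in DMEM/F12 or RPMI plus 10% FBS received two-drug dose matrices for 72 hours. Viability came from CellTiter-Glo 2.0 luminescence and was scaled as inhibition, anchored at 0 by vehicle wells and at 1 by blank wells. Combination Emax is taken as the second-highest inhibition in the matrix, and Bliss excess as the observed combination effect less EA + EB − EA·EB, with EA and EB the single-agent effects.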

For assay [2], the system named is ALL-PO (B-Lymphoblastic Leukemia). Put shortly:
as §1

The test system of another assay is GAMG (Glioblastoma). Put shortly:
as §1

Assay [3] deals with BFTC-909 (Kidney Carcinoma). Put shortly:
as §1

The subject of a further assay is KS-1 (Glioblastoma). Put shortly:
as §1

Assay [4] has as its system TGBC1TKB (Biliary Tract Carcinoma). Put shortly:
as §1

Assay [5] has as its system Hs-746T (Gastric Carcinoma). The method in brief:
as §1

In assay [6] the test system is LCLC-97TM1 (Non-Small Cell Lung Carcinoma). The method in brief: as §1
Assay [7] relates to NCI-H209 (Small Cell Lung Carcinoma). Put shortly: as §1
For assay [8], the system named is L-428 (Hodgkin's Lymphoma). Put shortly:
as §1

We go through nine compounds from the supplement of paper PMC11061612.

Turning to `COc1nnc2ccc(N3CCC(c4ccc(OCCN5CCN(C)C(=O)[C@H]5C)cc4)CC3)nn12` [AZD5153] + Cn1cnc2c(F)c(Nc3ccc(Br)cc3Cl)c(C(=O)NOCCO)cc21 [Selumetinib] (first compound max 1 µM, 7x7, partner max 10 µM), the “combination Emax” value came out at 0.477 in assay [1]; 0.88 in assay [2]; 0.527 in the assay on GAMG (Glioblastoma); 0.488 in assay [3]; 0.645 in the assay with KS-1 (Glioblastoma); 0.37 in [4]. Further, the “combination Emax” value in [5] turned out to be 0.731; in assay [6] it was 0.848; in [7] it was 0.508; in assay [8] it was 0.784.

As for `Cc1c2c(nn1C)CSCc1cc(n(C)n1)CSc1cc(c3ccccc3c1)OCCCc1c(C(=O)O)n(C)c3c-2c(Cl)ccc13` [AZD5991] + C1CN(CCC1(C(=O)N[C@@H](CCO)C2=CC=C(C=C2)Cl)N)C3=NC=NC4=C3C=CN4 [Capivasertib] (first compound max 1 µM, 7x7, partner max 3 µM), the “combination Emax” value worked out at 0.149 in assay [1]; 1 in [2]; 0.477 with GAMG (Glioblastoma); 0.446 in assay [3]; 0.338 in the assay with KS-1 (Glioblastoma); 0.292 in [4]. Besides, the “combination Emax” value was found to be 0.337 in [5], 0.32 in [6], 0.36 in assay [7] and 0.155 in assay [8].

For the compound `Cc1c2c(nn1C)CSCc1cc(n(C)n1)CSc1cc(c3ccccc3c1)OCCCc1c(C(=O)O)n(C)c3c-2c(Cl)ccc13` [AZD5991] + C=CCn1c(=O)c2cnc(Nc3ccc(N4CCN(C)CC4)cc3)nc2n1-c1cccc(C(C)(C)O)n1 [AZD1775] (first compound max 1 µM, partner max 1 µM), the “combination Emax” value in assay [1] was determined as 0.416; in [2] it was 1; in the assay with GAMG (Glioblastoma), 0.522; in assay [3] it was 0.944; in the assay on KS-1 (Glioblastoma), 0.464; in assay [4], 0.303. In addition, the “combination Emax” value was found to be 0.605 in [5], 0.948 in assay [6], 0.95 in assay [7] and 0.82 in assay [8].

As to `Cc1c2c(nn1C)CSCc1cc(n(C)n1)CSc1cc(c3ccccc3c1)OCCCc1c(C(=O)O)n(C)c3c-2c(Cl)ccc13` [AZD5991] + CC1(C)CCC(CN2CCN(c3ccc(C(=O)NS(=O)(=O)c4ccc(NCC5CCOCC5)c([N+](=O)[O-])c4)c(Oc4cnc5[nH]ccc5c4)c3)CC2)=C(c2ccc(Cl)cc2)C1 [Venetoclax] (first compound max 1 µM, 7x7, partner max 1 µM), the “combination Emax” value came out at 0.146 in assay [1]; 1 in assay [2]; 0.315 in the assay with GAMG (Glioblastoma); 0.239 in assay [3]; 0.146 in the assay on KS-1 (Glioblastoma); 0.161 in [4]. In addition, the “combination Emax” value in [5] was determined as 0.203; in assay [6] it was 0.138; in assay [7], 0.996; in assay [8] it was 0.158.

On to `Cc1c2c(nn1C)CSCc1cc(n(C)n1)CSc1cc(c3ccccc3c1)OCCCc1c(C(=O)O)n(C)c3c-2c(Cl)ccc13` [AZD5991] + CCN(CCO)CCCOc1ccc2c(Nc3cc(CC(=O)Nc4cccc(F)c4)[nH]n3)ncnc2c1 [AZD2811] (first compound max 1 µM, 7x7, partner max 1 µM), for which the “combination Emax” value in assay [1] amounted to 0.238; in assay [2] it was 1; with GAMG (Glioblastoma), 0.534; in assay [3], 0.438; in the assay with KS-1 (Glioblastoma) it was 0.286; in assay [4], 0.192. The “combination Emax” value in [5] came to 0.257; in assay [6] it was 0.722; in assay [7] it was 0.967; in [8], 0.31.

As for `Cc1c2c(nn1C)CSCc1cc(n(C)n1)CSc1cc(c3ccccc3c1)OCCCc1c(C(=O)O)n(C)c3c-2c(Cl)ccc13` [AZD5991] + CN(C)CCCOc1ccc(-c2ccc3ncc4c(c3c2)n(C2CCOCC2)c(=O)n4C)cn1 [AZD0156] (first compound max 1 µM, 7x7, partner max 1 µM), the “combination Emax” value in assay [1] came out at 0.169; in [2], 1; in the assay with GAMG (Glioblastoma), 0.255; in [3], 0.239; in the assay on KS-1 (Glioblastoma), 0.225; in [4], 0.219. Besides, the “combination Emax” value stood at 0.358 in assay [5], 0.286 in [6], 0.544 in [7] and 0.23 in [8].

Turning to `Cc1c2c(nn1C)CSCc1cc(n(C)n1)CSc1cc(c3ccccc3c1)OCCCc1c(C(=O)O)n(C)c3c-2c(Cl)ccc13` [AZD5991] + C[C@@H]1COCCN1C2=NC(=NC(=C2)C3(CC3)[S@](=N)(=O)C)C4=C5C=CNC5=NC=C4 [AZD6738] (first compound max 1 µM, 7x7, partner max 10 µM), the “combination Emax” value in assay [1] was determined as 0.327; in assay [2], 1; in the assay on GAMG (Glioblastoma), 0.579; in assay [3], 0.931; in the assay on KS-1 (Glioblastoma), 0.587; in [4] it was 0.403. Besides, the “combination Emax” value in [5] is 0.551; in assay [6], 0.894; in assay [7], 0.997; in [8] it was 0.808.

As for `Cc1c2c(nn1C)CSCc1cc(n(C)n1)CSc1cc(c3ccccc3c1)OCCCc1c(C(=O)O)n(C)c3c-2c(Cl)ccc13` [AZD5991] + C[C@@H](Nc1cc(F)cc(F)c1)c1cc(C(=O)N(C)C)cc2c(=O)cc(N3CCOCC3)oc12 [AZD8186] (first compound max 1 µM, 7x7, partner max 3 µM), the “combination Emax” value in assay [1] was 0.182; in [2], 1; in the assay on GAMG (Glioblastoma), 0.585; in assay [3], 0.3; in the assay with KS-1 (Glioblastoma), 0.416; in [4], 0.377. Moreover, the “combination Emax” value was determined as 0.487 in assay [5], 0.221 in assay [6], 0.384 in assay [7] and 0.12 in [8].

As to `Cc1c2c(nn1C)CSCc1cc(n(C)n1)CSc1cc(c3ccccc3c1)OCCCc1c(C(=O)O)n(C)c3c-2c(Cl)ccc13` [AZD5991] + Cc1cc2ncnn2cc1Nc1ncc2c(n1)n(C1CCOCC1)c(=O)n2C [AZD7648] (first compound max 1 µM, 7x7, partner max 10 µM), the “combination Emax” value in [1] was determined as 0.248; in assay [2], 1; with GAMG (Glioblastoma) it was 0.382; in assay [3] it was 0.292; with KS-1 (Glioblastoma), 0.253; in assay [4], 0.319. Besides, the “combination Emax” value stood at 0.319 in [5], 0.385 in assay [6], 0.431 in assay [7] and 0.251 in assay [8].
